In patent US9517215B2, “Dermal matrix and production method thereof having synergistic effects comprising microparticles which provides tissue repair” (T.C. EGE UNIVERSITESI, priority 2013, dated 2016):

System: human dermal fibroblast cells (Invitrogen C-013-5C)
Test: Cell vitality of human dermal fibroblast cells after 24 h incubation
Assay type: cell-based
Protocol: The human dermal fibroblast cells, (Invitrogen C-013-5C) were cultured in humid conditions comprising 37±0.5° C. and 5% CO2 according to the instructions of the producer. […] Oxidative stress parameters such as total glutation, malondialdehyde, and superoxide dismutase and glutation peroxidase have been examined inside the cells that have been analyzed.

In the case of `Oc1ccc(C=Cc2cc(O)cc(O)c2)cc1` [Resveratrol solution, resveratrol], the “cytotoxic potential (cell vitality)” value is reported as “not to have cytotoxic potential” and the cell proliferation effect (concentrations corresponding to 50 μM resveratrol content) is reported as “cell proliferation increasing effects”.
